The experiment has as its system Human primary melanocytes. As to the kind of experiment: Melanin content assay in α-MSH-stimulated melanocytes. In kind it is cell-based. Conditions: for Melanin Content (%) Average ± SD: 72 h, untreated control (A) = 100. The protocol: Human primary melanocytes were grown in melanocytes growth medium (MGM) with human melanocyte growth supplement. 500 μL/well (5×10^4 cells/well) of this solution was plated in a 24 wells plate and incubated in an incubator (Thermo Scientific, Model 3111) at 37° C. with 5% CO2 atmosphere.
After 24 h of incubation, cell cultures were treated with the test actives (as outlined in table 1) dissolved in 20% ethanol. After 1 h of actives addition, 10 nM of α-MSH was added. The cells were again incubated for 72 h in an incubator. At the end of this incubation period, the culture medium was replaced with 120 μL/well of melanin content assay reagent (10% Dimethyl sulfoxide in 1 N sodium hydroxide) and incubated for 1 h at 60° C. in a shaker incubator. The supernatant was then transferred to a 384 well plate. The absorbance was measured at 405 nm with a microtiter plate reader (Genios Pro, Tecan M 1000).
In the first set of experiments, human primary melanocytes were subjected to treatments as outlined in table 1 below.

In the case of `CCc1ccc(O)cc1O` [C, 4-ethyl resorcinol], the “Melanin Content (%) Average ± SD” value (4-ER 50 μM, 10 nM α-MSH added 1 h after active, absorbance 405 nm) is given as 68 ± 12.7%.

As for α-Melanocyte stimulating hormone [B], the “Melanin content, comparison in words” value (10 nM MSH, example 1 vs black tea (example D), example B vs untreated control (example A)) is “over and above the control cells”. In addition, the “Melanin Content (%) Average ± SD” value (MSH 10 nM alone, no test active) stood at 121 ± 9.7%.

These data come from patent publication US20210299034A1, “A Topical Composition” (Conopco, Inc., d/b/a UNILEVER, priority 2018, published 2021).
